Test results from PMC9542285, “Novel amides of mycophenolic acid and some heterocyclic derivatives as immunosuppressive agents” (Journal of Enzyme Inhibition and Medicinal Chemistry, 2022).
Like-named read-outs stand apart in the source and are kept apart here.

Assays:
[1] = system: PBMCs; experiment: In vitro cytotoxicity assay with XTT dye, PBMCs; type: cell-based, human; settings: Homo sapiens, PBMC, 72 h incubation then 24 h XTT, read-out: IC50 PBMCs (XTT test)
Description: (§1) Figure 2. Representative dose-response curve to determine the IC50 of MPA and A2. […] Next, plates were incubated for 24 h with XTT reagent. The conversion of water-soluble yellow tetrazolium XTT salt into orange formazan was monitored by measuring the optical density at 450 nm on microplate spectrophotometer. For XTT assay at least three experiments were performed and values are presented as mean ± SD.
(§2) The cytotoxic effect of derivatives of MPA was measured using in vitro 2,3-bis(2-methoxy-4-nitro-5-sulfophenyl)-2H-tetrazolium-5-carboxanilide (XTT)-based assay (Roche, Basel, Swiss). PBMCs suspended in complete X–VIVO20 medium and T-Jurkat cells suspended in complete RPMI-1640 medium were added on a 96-well plate at a concentration of 5 × 10^5 cells/50 µL/well. […] As a background control we used medium without cells, as a positive control we used cells untreated with compounds. After 48 h for T-Jurkat cells and 72 h for PBMCs of incubation in a humidified atmosphere with 5% CO2 at 37 °C, 50 µL of XTT reagent (freshly prepared according to the manufacturer’s procedure) was added to all samples. Plates were incubated for 24 h (5% CO2 at 37 °C). The conversion of water-soluble yellow tetrazolium XTT salt into orange formazan was monitored by measuring the optical density (OD) at 450 nm on Agilent BioTek Epoch Microplate Spectrophotometer (Agilent Technologies, Santa Clara, CA), with a background wavelength at 690 nm. […] Each sample was performed in triplicates.

[2] = system: T-Jurkat cell line; experiment: In vitro cytotoxicity assay with XTT dye, T-Jurkat; type: cell-based, human; settings: Homo sapiens, 48 h incubation then 24 h XTT, read-out: IC50 T-Jurkat (XTT test)
Description: as §1, §2

[3] = system: T-Jurkat cells; experiment: Dye-based proliferation assay VPD450 (flow cytometry), T-Jurkat; type: cell-based, human; settings: Homo sapiens, 48 h
Description: Figure 4. […] Cell proliferation was analysed using flow cytometry.

[4] = system: PBMCs; experiment: VPD450 proliferation of PBMCs with or without GMP (IMPDH mechanism test); type: cell-based, human; settings: PBMCs, 72 h
Description: According to reported experiment, suppression of cell proliferation caused by IMPDH inhibitors in the presence of guanosine source, e.g. gunosine monophosphate (GMP) is reversible.
Figure 5. […] Cell proliferation was analysed using flow cytometry.
Cells proliferation was analyzed using flow cytometry.
(1 picture or pasted object on this page, not shown here)

[5] = system: PBMCs; settings: read-out: EC50 PBMCs (VPD450 proliferation); PBMCs stimulated with anti-CD3/anti-CD28 beads, 72 h
Description: (§3) Cell proliferation was analysed using flow cytometry. The results are expressed as the mean ± SD.
(§4) PBMCs and T-Jurkat cells were washed twice with warm PBS (37 °C), suspended in fresh PBS at a final concentration of 10–30 × 10^6 cells/mL and labelled with 1 µL of VPD450 (BD Biosciences, Franklin Lakes, NJ) at 37 °C for 15 min. Each 5 min cells were vortexed to provide uniform staining[42]^,[43]. Subsequently, cells were washed with PBS and then with complete medium (X-VIVO20 for PBMCs and RPMI-1640 for T-Jurkat cells). After this step, cells were suspended in fresh complete medium, seeded on 96-well plates (1 × 10^6 cells/well). PBMCs were additionally stimulated with magnetic beads coated with anti-CD3 and anti-CD28 antibodies (Invitrogen, Carlsbad, CA) in 1:0.5 cell:bead ratio. Of 100 µL of examined derivatives of MPA were added to experimental wells to receive final concentrations: 100; 10; 1; 0.1; 0.01 µM. In parallel, stained and not stimulated cells, as well as stained and stimulated cells, were seeded in the same concentration as controls. After 48 h for T-Jurkat and 72 h for PBMCs, cells were analysed with flow cytometer LSRFortessa (BD Biosciences, Franklin Lakes, NJ) and Kaluza C Flow Cytometry Analysis Software (Beckman Coulter, Brea, CA). […] Cell viability was determined at the highest concentration of the tested compound. For this purpose, TC20 cell counter (Biorad) was used with trypan blue exclusion.

[6] = system: PBMCs; experiment: cells; settings: Homo sapiens, PBMC, 72 h, read-out: EC50 PBMCs (VPD450 proliferation), PBMCs stimulated with anti-CD3/anti-CD28 beads, 72 h
Description: as §3, §4

**Q.** With `COc1c(C)c2c(c(O)c1C/C=C(\C)CCC(=O)Nc1nc3ccccc3o1)C(=O)OC2` [A2, N-(benzo[d]oxazol-2-yl) mycophenolate] as the compound, how does the IC50 [1] read?
**A.** 15.923 ± 0.009 µM

**Q.** What about the IC50 [2] of the same compound?
**A.** 1.326 ± 0.002 µM

**Q.** And the EC50 [3]?
**A.** 0.85 ± 0.004 µM

**Q.** What about the “Effect of GMP addition on proliferation” value ([4]; 50 µM GMP, MPA at 100, 10 and 1 µM, A2 at 100 and 10 µM) of the same compound?
**A.** proliferation increases after the addition of GMP

**Q.** And the “Mechanism of action (IMPDH inhibition, GMP reversal)” value ([4]; with or without 50 µM GMP)?
**A.** consistent with that of MPA

**Q.** What about the melting point of the same compound?
**A.** 175 to 177 °C

**Q.** What about the EC50 [5] of the same compound?
**A.** 5.601 ± 0.022 µM

**Q.** What about the EC50 [6] of the same compound?
**A.** 5.6 µM
